Measurements published in publication PMC6750840 (Journal of Medicinal Chemistry, 2019).

How the values were obtained:
[1] = system: histamine-induced flare response; conditions: after oral administration; cited from earlier work
[2] = after administration; cited from earlier work
H1R = conditions: cited from earlier work
human H1R = human H1R (Homo sapiens, UniProt P35367); test: Binding rate constants of [3H]levocetirizine; conditions: four concentrations (1–35 nM), 360 min, 37 °C
human H1R, sequence (P35367 whole entry): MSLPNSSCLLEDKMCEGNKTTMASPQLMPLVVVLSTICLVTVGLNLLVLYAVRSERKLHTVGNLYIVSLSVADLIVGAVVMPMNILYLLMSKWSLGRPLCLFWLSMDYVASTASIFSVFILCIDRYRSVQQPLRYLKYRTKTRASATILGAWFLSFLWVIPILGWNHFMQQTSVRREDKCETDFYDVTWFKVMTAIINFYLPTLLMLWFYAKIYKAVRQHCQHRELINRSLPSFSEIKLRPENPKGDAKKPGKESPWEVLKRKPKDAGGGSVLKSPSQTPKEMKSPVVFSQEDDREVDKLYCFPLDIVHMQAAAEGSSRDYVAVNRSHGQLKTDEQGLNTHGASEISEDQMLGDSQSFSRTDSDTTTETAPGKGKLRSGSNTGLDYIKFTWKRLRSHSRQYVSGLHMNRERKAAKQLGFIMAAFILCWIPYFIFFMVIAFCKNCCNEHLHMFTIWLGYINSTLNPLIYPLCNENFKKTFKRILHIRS

Cc1cncc(CN2CCC(=C3c4ccc(Cl)cc4CCc4cccnc43)CC2)c1 [Compound 1, rupatadine]
duration of antagonism of the histamine-induced flare response [1]: up to 72 h
time up to which plasma levels could be detected [2]: up to 12 h

O=C(O)COCCN1CCN([C@H](c2ccccc2)c2ccc(Cl)cc2)CC1 [levocetirizine]
fold longer residence time at the H1R than mepyramine (H1R): 100 fold

(R)-5-(4-((4-Chlorophenyl)([4-^3H]phenyl)methyl)piperazin-1-yl)pentanoic Acid [[^3H]levocetirizine]
koff (human H1R): 0.022 ± 0.003 min^–1
kon (human H1R): 3.7 ± 0.4 10^6 min^–1 M^–1
